Laboratory results: paper PMC6494879, “Drug resistance emergence in macaques administered cabotegravir long-acting for pre-exposure prophylaxis during acute SHIV infection” (Nature Communications, 2019)

Key:
[1] = test system: SIV integrase I250V (SIV IN RTV pseudovirus); assay: organism not typed; format: cell-based; conditions: for EC50: HEK293
[2] = test system: SIV integrase E92G (SIV IN RTV pseudovirus)
[3] = test system: SIV integrase E92Q/G140R (SIV IN RTV pseudovirus); format: cell-based; conditions: E92Q/G140R SIV integrase mutant
[4] = test system: SIV integrase G118R/A122T (SIV IN RTV pseudovirus); format: cell-based; conditions: G118R/A122T SIV integrase mutant
[5] = test system: SIV integrase Q124R (SIV IN RTV pseudovirus); assay: organism not typed; format: cell-based; conditions: for EC50: HEK293
[6] = test system: SIV integrase WT (SIV IN RTV pseudovirus); assay: organism not typed; format: cell-based; conditions: for EC50: HEK293; for fold-change relative to wild type integrase: WT SIV integrase
[7] = test system: SIV integrase I72T (SIV IN RTV pseudovirus); assay: organism not typed; format: cell-based; conditions: for EC50: HEK293
[8] = test system: SIV integrase I110V (SIV IN RTV pseudovirus); assay: organism not typed; format: cell-based; conditions: for EC50: HEK293
[9] = test system: SIV integrase G140R (SIV IN RTV pseudovirus); assay: organism not typed; format: cell-based; conditions: for EC50: HEK293
[10] = test system: SIV integrase E92Q (SIV IN RTV pseudovirus); format: cell-based; conditions: E92Q SIV integrase mutant
[11] = test system: SIV integrase A122T (SIV IN RTV pseudovirus); assay: organism not typed; format: cell-based; conditions: for EC50: HEK293
[12] = test system: SIV integrase G118R (SIV IN RTV pseudovirus); format: cell-based; conditions: G118R SIV integrase mutant
HIV integrase G140S/A/C = conditions: cited from earlier work

SMILES: O=C(NCc1c(F)cc(F)cc1F)c1cn2c(c(O)c1=O)C(=O)N1[C@H]3CC[C@H](C3)O[C@@H]1C2 [BIC, bictegravir]
- EC50 [1]: 1.56 nM
- fold-change relative to wild type integrase [1]: 1.6 fold
- EC50 [2]: 4.29 nM
- fold-change relative to wild type integrase [2]: 4.3 fold
- fold-change relative to wild type integrase [3]: >1000 (>1000) fold
- fold-change relative to wild type integrase [4]: >1000 (>1000) fold
- EC50 [5]: 1.49 nM
- fold-change relative to wild type integrase [5]: 1.5 fold
- EC50 [6]: 1 nM
- fold-change relative to wild type integrase [6]: 1 fold
- EC50 [7]: 1.51 nM
- fold-change relative to wild type integrase [7]: 1.5 fold
- EC50 [8]: 1.78 nM
- fold-change relative to wild type integrase [8]: 1.8 fold
- EC50 [9]: > 1000 nM
- fold-change relative to wild type integrase [9]: >1000 (>1000) fold
- fold-change relative to wild type integrase [10]: 2.0 fold
- EC50 [11]: 2.1 nM
- fold-change relative to wild type integrase [11]: 2.1 fold
- fold-change relative to wild type integrase [12]: >1000 (>1000) fold

SMILES: C[C@@H]1CCO[C@H]2Cn3cc(C(=O)NCc4ccc(F)cc4F)c(=O)c(O)c3C(=O)N12 [DTG, dolutegravir]
- EC50 [1]: 0.92 nM
- fold-change relative to wild type integrase [1]: 0.9 fold
- EC50 [2]: 2.78 nM
- fold-change relative to wild type integrase [2]: 2.8 fold
- fold-change relative to wild type integrase [3]: >1000 (>1000) fold
- fold-change relative to wild type integrase [4]: >1000 (>1000) fold
- EC50 [5]: 1.62 nM
- fold-change relative to wild type integrase [5]: 1.6 fold
- EC50 [6]: 1 nM
- fold-change relative to wild type integrase [6]: 1 fold
- EC50 [7]: 1.14 nM
- fold-change relative to wild type integrase [7]: 1.1 fold
- fold reduced susceptibility of HIV with G140S/A/C (HIV integrase G140S/A/C): 10-100 fold
- EC50 [8]: 1.52 nM
- fold-change relative to wild type integrase [8]: 1.5 fold
- EC50 [9]: > 1000 nM
- fold-change relative to wild type integrase [9]: >1000 (>1000) fold
- fold-change relative to wild type integrase [10]: 1.5 fold
- EC50 [11]: 1.42 nM
- fold-change relative to wild type integrase [11]: 1.4 fold
- fold-change relative to wild type integrase [12]: >1000 (>1000) fold

SMILES: O=C1Nc2ccc(Cl)cc2[C@@](C#CC2CC2)(C(F)(F)F)O1 [EFV, efavirenz]
- EC50 [1]: 0.67 nM
- fold-change relative to wild type integrase [1]: 1.0 fold
- EC50 [2]: 1.01 nM
- fold-change relative to wild type integrase [2]: 1.5 fold
- fold-change relative to wild type integrase [3]: 1.9 fold
- fold-change relative to wild type integrase [4]: 1.1 fold
- EC50 [5]: 0.7 nM
- fold-change relative to wild type integrase [5]: 1.0 fold
- EC50 [6]: 0.67 nM
- fold-change relative to wild type integrase [6]: 1 fold
- EC50 [7]: 0.6 nM
- fold-change relative to wild type integrase [7]: 0.9 fold
- EC50 [8]: 0.79 nM
- fold-change relative to wild type integrase [8]: 1.2 fold
- EC50 [9]: 0.59 nM
- fold-change relative to wild type integrase [9]: 0.9 fold
- fold-change relative to wild type integrase [10]: 0.8 fold
- EC50 [11]: 0.77 nM
- fold-change relative to wild type integrase [11]: 1.2 fold
- fold-change relative to wild type integrase [12]: 1.5 fold

SMILES: COc1cc2c(cc1Cc1cccc(Cl)c1F)c(=O)c(C(=O)O)cn2[C@H](CO)C(C)C [EVG, elvitegravir]
- EC50 [1]: 1.45 nM
- fold-change relative to wild type integrase [1]: 1.2 fold
- EC50 [2]: 4.53 nM
- fold-change relative to wild type integrase [2]: 3.7 fold
- fold-change relative to wild type integrase [3]: > 807 fold
- fold-change relative to wild type integrase [4]: > 807 fold
- EC50 [5]: 1.59 nM
- fold-change relative to wild type integrase [5]: 1.3 fold
- EC50 [6]: 1.24 nM
- fold-change relative to wild type integrase [6]: 1 fold
- EC50 [7]: 1.17 nM
- fold-change relative to wild type integrase [7]: 0.9 fold
- fold reduced susceptibility of HIV with G140S/A/C (HIV integrase G140S/A/C): 10-100 fold
- EC50 [8]: 1.55 nM
- fold-change relative to wild type integrase [8]: 1.3 fold
- EC50 [9]: > 1000 nM
- fold-change relative to wild type integrase [9]: > 807 fold
- fold-change relative to wild type integrase [10]: 7.8 fold
- EC50 [11]: 1.15 nM
- fold-change relative to wild type integrase [11]: 0.9 fold
- fold-change relative to wild type integrase [12]: > 807 fold

SMILES: Cc1nnc(C(=O)NC(C)(C)c2nc(C(=O)NCc3ccc(F)cc3)c(O)c(=O)n2C)o1 [RAL, raltegravir]
- EC50 [1]: 4 nM
- fold-change relative to wild type integrase [1]: 1.4 fold
- EC50 [2]: 8.07 nM
- fold-change relative to wild type integrase [2]: 2.8 fold
- fold-change relative to wild type integrase [3]: > 345 fold
- fold-change relative to wild type integrase [4]: > 345 fold
- EC50 [5]: 4.6 nM
- fold-change relative to wild type integrase [5]: 1.6 fold
- EC50 [6]: 2.9 nM
- fold-change relative to wild type integrase [6]: 1 fold
- EC50 [7]: 2.73 nM
- fold-change relative to wild type integrase [7]: 0.9 fold
- fold reduced susceptibility of HIV with G140S/A/C (HIV integrase G140S/A/C): 10-100 fold
- EC50 [8]: 3.8 nM
- fold-change relative to wild type integrase [8]: 1.3 fold
- EC50 [9]: > 1000 nM
- fold-change relative to wild type integrase [9]: > 345 fold
- fold-change relative to wild type integrase [10]: 3.6 fold
- EC50 [11]: 4.13 nM
- fold-change relative to wild type integrase [11]: 1.4 fold
- fold-change relative to wild type integrase [12]: > 345 fold
